Four molecules from patent US20060074066A1, “Use of an inhibitor of cathepsin-S or -B to treat or prevent chronic obstructive pulmonary disease” (Yale University, priority 2003, published 2006) can be followed below.

What all share (format): in vivo
Experiment [1] relates to cathepsins B, S, and H and MMPs-2, 9, 12 and 14. In words: Lung mRNA encoding cathepsins and MMPs (RT-PCR, real-time RT-PCR). The conditions noted are these: transgene (+) mice on dox for 2 weeks.
The next experiment concerns IFN-γ-induced apoptosis. The experiment is described as follows: TUNEL evaluation of IFN-γ-induced lung cell apoptosis in transgenic mice. The conditions noted are these: transgene (+) mice on dox; for effect on IFN-γ-induced apoptosis (in words): treated vs vehicle control, 14150 10 mg/kg/day by gavage, CA074 10 mg/Kg/day I.P., leupeptin 15 mg/kg I.P. The source says: (§1) CC10-rtTA-IFN-γ mice that had been generated in our laboratory and bred for at least 10 generations onto a Balb/c background were used in these studies. These are dual transgene positive animals in which the reverse tetracycline transactivator (rtTA) drives the expression of the murine IFN-γ gene in a lung-specific and externally regulatable fashion. The transgene in these mice is activated by adding doxycycline (dox) to the animal's drinking water. These mice were maintained as dual transgene (+) heterozygotes (refered to as transgene (+) hereafter).
(§2) CC10-rtTA-IFN-γ mice and littermate controls were maintained on normal water until they were 4-6 weeks old.
End labeling of exposed 3′-OH ends of DNA fragments in paraffin embedded tissue was undertaken with the TUNEL in situ cell death detection kit AP (Roche Diagnostics, CA, USA) using the instructions provided by the manufacturer. After staining, 20 fields of alveoli were randomly chosen and 2000 nuclei were counted. The labeled cells were expressed as percentage of total nuclei.

The test system of experiment [2] is CC10-rtTA-IFN-γ mice. In words: IFN-γ-induced emphysema (lung volume, chord length, alveolar histology, compliance) in transgenic mice. The conditions noted are these: transgene (+) mice on dox, treated vs vehicle control.
Excerpt: as §1, §2
(§3) Animals were sacrificed via cervical dislocation, a median stemotomy was performed, and right heart perfusion was accomplished with calcium- and magnesium-free PBS to clear the pulmonary intravascular space. The lungs were then fixed to pressure (25 cm) with neutral buffered 10% formalin, fixed overnight in 10% formalin, embedded in paraffm, sectioned at 5 μm and stained. Hematoxylin and eosin (H&E) stains were performed in the Research Histology Laboratory of the Department of Pathology at Yale University School of Medicine.
In brief, the trachea was cannulated, the lungs were degassed and the lungs and heart were removed en bloc and inflated with PBS at 25 cm of pressure. The size of the lung was evaluated via volume displacement. Compliance was calculated as the change in volume divided by the change in pressure.

Experiment [3] relates to CC10-rtTA-IFN-γ mice. The experiment is described as follows: IFN-γ-induced BAL cell recovery and tissue inflammation. The conditions noted are these: transgene (+) mice on dox for 2 weeks. As for the experimental part:
Mice were euthanized, the trachea was isolated by blunt dissection, and tubing was secured in the airway. Two volumes of 1 mL of PBS with 0.1% BSA were then instilled and gently aspirated and pooled. Each BAL fluid sample was centriged, and the supernatants were stored in −70° C. until used. The levels of IFN-γ were determined using a commercial ELISA (R&D Systems Inc., Minneapolis, Minn., USA) as per the manufacturer's instructions.
as §3

SMILES strings stand for the structures. “Also recorded” adds a separate entry of the source. Peptide text beside a SMILES is read from it. * marks the point of attachment. Cbz = O=C(OCc1ccccc1)*; CH2F = FC*

On to `CC(=O)N[C@@H](CC(C)C)C(=O)N[C@@H](CC(C)C)C(=O)N[C@H](C=O)CCCNC(=N)N` [leupeptin], for which, in experiment [1], the “IFN-γ-induced increase in mRNA encoding cathepsin B, cathepsin S and MMPs-2 and -14” value is given as “decreased”; the “MMP-9 mRNA induction by IFN-γ” value was “leupeptin-dependent”.
On to `CCCNC(=O)[C@H]1O[C@@H]1C(=O)N[C@H](C(=O)N1CCC[C@H]1C(=O)O)[C@@H](C)CC` (relative stereo) [CA074, N-(L-3-trans-propylcarbamoyl-oxirane-2-carbonyl)-L-isoleucyl-L-proline], for which the “effect on IFN-γ-induced apoptosis (in words)” value in the experiment with IFN-γ-induced apoptosis is “significant decreases”. Besides, the “effect on IFN-γ-induced emphysema (lung volume, chord length, histology, compliance; in words)” value in the experiment on CC10-rtTA-IFN-γ mice [2] is recorded as “significant decreases”.
Regarding `CC[C@H](NC(=O)[C@H](CS(=O)(=O)CC(C)C)NC(=O)N1CCOCC1)C(=O)c1nc2ccccc2o1` [compound 14150], in the experiment on IFN-γ-induced apoptosis, the “effect on IFN-γ-induced apoptosis (in words)” value was “significant decreases; also recorded: significantly inhibited”. Moreover, in the experiment on CC10-rtTA-IFN-γ mice [2], the “effect on IFN-γ-induced emphysema (lung volume, chord length, histology, compliance; in words)” value was “significant decreases; also recorded: significantly inhibited”.
`COC(=O)C[C@H](NC(=O)[C@H](C)NC(=O)[C@@H](NC(=O)OCc1ccccc1)C(C)C)C(=O)CF` [Z-VAD-fmk] (Cbz-Val-Ala-Asp(OMe)-CH2F): the “decrease of the levels of IFN-γ-induced apoptosis” value in the experiment on IFN-γ-induced apoptosis (Z-VAD-fmk 3 μg/kg/day I.P. vs vehicle control) is reported as at least 85%. Further, in the experiment with CC10-rtTA-IFN-γ mice [2], the “effect on IFN-γ-induced emphysema (lung volume, chord length, histology, compliance; in words)” value is listed as “decreased the emphysema generating effects of IFN-γ; also recorded: only partially abrogated”. Also, the “IFN-γ-induced BAL total cell, neutrophil, lymphocyte and macrophage alterations and tissue inflammation” value in the experiment with CC10-rtTA-IFN-γ mice [3] is “markedly ameliorated”. In experiment [1], the “IFN-γ-induced increase in mRNA encoding cathepsin B, cathepsin S and MMPs-2 and -14” value is on record as “markedly ameliorated”; the “levels of mRNA encoding cathepsin H and MMPs-9 and -12” value is “not similarly altered”.
